{
  "source": "patent US20100209934A1",
  "about": "“METHOD OF IDENTIFYING AGENTS WHICH MODULATE THE ACTIVITY OF CALCIUM-ACTIVATED CHLORIDE CHANNEL” (SNU R&DB FOUNDATION, priority 2007, published 2010)",
  "key": {"mANO1 [1]": {"tested_on": "mANO1", "assay": "FLIPR membrane potential (voltage-sensing fluorescence) assay in mANO1-stably expressing HEK cells", "assay_type": "cell-based, mouse", "conditions": "for membrane potential change detected by fluorescent intensity: 100 μM ATP or 10 μM A23187, mANO1-stably expressing HEK cells, not seen in control HEK cells", "method": "The activity of the ANO1-stable cell line was characterized with a FLIPR® Membrane Potential assay kit (Molecular devices, Sunnyvale, Calif.) according to the manufacture's instructions. ANO1-stable cell lines were seeded into poly-D-lysine coated 96-well plates (50,000 cells/each well). One day after the plating, the cells were incubated with 50 μl Hank's balanced salt solution (HBSS) containing membrane potential dye for 40 min at 37° C. To test the activity of ANO1 stable cell line, 100·μM ATP or 10·μM A23187 (Sigma, St Louis, Mo., USA) was added to each well for 20 sec after starting detection. The fluorescence intensity was measured by a fluorometric imaging plate reader (FlexStation™ II, MolecularDevices). Membrane potential dye was excited at 530 nm, and the intensity of fluorescence emitted at 565 nm was measured.\nTo determine if ANO1 is applicable for high-throughput screening (HTS) analysis, we constructed a stable cell line that constitutively expresses mANO1 (Reference example 7). The mANO1 stable cell line was grown in wells of a 96-well plate. mANO1-stably expressing HEK cells were incubated with a voltage sensor fluorescent dye (FLIPR®-membrane potential assay kit, Molecular Device) to detect change in membrane potential when ANO1 is activated. When ANO1 is activated, Cl^− would flux out the cell to depolarize the membrane, which makes the fluorescence dye fluoresce. After wash out the fluorescent dye, 100 μM ATP was applied. […] Fluorescent intensity was detected at excitation 530 nm and emission 565 nm by FlexStation 2 (Molecular device). […] F/F0: ratio of fluorescence intensity. Pretreatment of 2APB, a known blocker of IP3 receptor, blocked the ATP induced-membrane potential change in ANO1-stably expressing HEK cells (FIG. 13C)."}, "mANO1 [2]": {"target": "T1, mANO1 (Mus musculus, UniProt Q8BHY3, S527P)", "T1 sequence (Q8BHY3 1-960 S527P)": "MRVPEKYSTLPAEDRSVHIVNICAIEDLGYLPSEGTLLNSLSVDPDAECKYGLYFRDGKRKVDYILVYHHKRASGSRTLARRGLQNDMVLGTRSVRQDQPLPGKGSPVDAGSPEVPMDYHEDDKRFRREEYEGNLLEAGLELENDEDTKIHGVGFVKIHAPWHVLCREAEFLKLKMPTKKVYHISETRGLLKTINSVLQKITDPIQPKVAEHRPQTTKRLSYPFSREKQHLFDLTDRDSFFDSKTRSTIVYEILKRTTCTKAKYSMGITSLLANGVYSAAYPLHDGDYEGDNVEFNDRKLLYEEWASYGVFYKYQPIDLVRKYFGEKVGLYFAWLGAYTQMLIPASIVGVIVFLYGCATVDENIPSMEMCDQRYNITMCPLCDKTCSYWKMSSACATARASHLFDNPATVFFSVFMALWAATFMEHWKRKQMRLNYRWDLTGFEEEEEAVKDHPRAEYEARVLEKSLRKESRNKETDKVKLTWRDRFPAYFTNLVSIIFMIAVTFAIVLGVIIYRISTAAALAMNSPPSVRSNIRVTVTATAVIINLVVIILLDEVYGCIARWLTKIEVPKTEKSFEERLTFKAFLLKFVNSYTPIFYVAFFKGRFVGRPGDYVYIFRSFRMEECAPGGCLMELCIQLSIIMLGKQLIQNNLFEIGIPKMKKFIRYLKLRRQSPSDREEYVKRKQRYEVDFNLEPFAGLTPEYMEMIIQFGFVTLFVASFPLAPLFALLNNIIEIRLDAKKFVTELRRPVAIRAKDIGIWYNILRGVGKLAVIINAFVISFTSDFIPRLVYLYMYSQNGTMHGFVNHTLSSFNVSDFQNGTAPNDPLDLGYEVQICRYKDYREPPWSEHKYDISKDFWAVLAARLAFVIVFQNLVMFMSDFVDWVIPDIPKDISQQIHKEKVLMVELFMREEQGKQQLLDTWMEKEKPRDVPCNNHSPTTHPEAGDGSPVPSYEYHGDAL", "assay": "Ca2+ activation of macroscopic currents in inside-out patches from ANO1/ETAR-HEK cells", "assay_type": "biochemical", "parameters": "expressed in transfected cells", "conditions": "for EC50: inside-out patches", "method": "A. Macroscopic current responses to repeated applications of Ca^2+ in various concentrations to the bath of inside-out patches isolated from mANO1-ETAR/HEK cells at holding potentials of −60 or +60 mV. Pipette and bath solution contained 140 mM NMDG-Cl.\nB. Dose-response relationship of mANO1 activation by Ca^2+. Current responses were normalized versus those observed at 10 μM (−60 mV, n=8) or 3 μM Ca^2+ (+60 mV, n=8). Data points were fitted to the Hill's equation. (Error bars=Mean±S.E.M)\n(§1) To form gigaseals, individual cell surfaces were touched with a ˜3 Mohm Sylgard-coated glass pipette with gentle suction, and the junction potential was then adjusted to 0 mV. The membrane in contact with the pipette was then ruptured by suction to form a whole cell. The pipette solution contained 140 mM NMDG-Cl, 2 mM MgCl2, 10 mM HEPES, 2 mM ATP, and 0.3 mM GTP adjusted to pH 7.2, and the bath solution contained 140 mM NMDG-Cl, 2 mM MgCl2 and 10 mM HEPES (pH 7.2). For ion selectivity experiments, 140 mM NMDG-Cl was replaced with equimolar NaCl, NaL NaBr, NaNO3, NaF, or Na-gluconate in the bath solution. To determine current-voltage relationships, voltage ramps from −80 or −100 mV to +80 or +100 mV were delivered for 350 ms, or voltage-pulses from −100 mV to +100 mV were delivered for 400 ms to whole cells. When mANO1 was activated by 300 nM intracellular Ca^2+, voltage-pulses of 2500 ms were delivered. Whole-cell currents were amplified using an Axopatch 200B amplifier (Molecular Device, Sunnyvale, Calif.) and stored in a personal computer after digitization by a Digidata 1440 (Molecular Device). For single-channel current recordings, cell-attached or inside-out patches were formed from gigaseals. The pipette and control bath solution contained 140 mM NMDG-Cl, 2 mM MgCl2 and 10 mM HEPES (pH 7.2). […] To create amplitude histograms, pClamp software (version 6.0, Molecular Device) was used to analyze open and closed single-channel current events. The half-amplitude algorithm was used to determine an open event. The minimum duration of an open event was set at 0.1 ms.\nCa^2+ in various concentrations applied to the bath (intracellular side) evoked macroscopic […] currents in a dose-dependent manner (Ehold=−60 mV) (FIG. 7A). […] The threshold concentration of Ca^2+ reached about 0.3 μM at −60 mV holding potential (FIG. 7B). Remarkably, ANO1 activation by Ca^2+ was voltage-dependent, which is also characteristic of endogenous CaCCs (Nilius, B. et al., Cell Calcium 22, 53-63 (1997), Kuruma, A. & Hartzell, H. C., J Gen Physiol 115, 59-80 (2000), Evans, M. G. & Marty, A., J Physiol 378, 437-60 (1986)). At a depolarized membrane potential (+60 mV), ANO1 was more sensitive to Ca^2+ and the concentration-response curve shifted to the left, resulting in an EC50 of 0.4 μM (FIG. 7B). Hill's coefficients of the concentration-response curves were 2.0 and 2.4 at −60 and +60 mV, respectively."}, "mANO1 [3]": {"tested_on": "mANO1", "assay": "Whole-cell current response to GPCR stimulation in HEK 293T cells co-transfected with mANO1 and a GPCR", "assay_type": "cell-based, mouse", "method": "HEK 293T cells were transfected with pEGFP-N1 (control) (1.0 μg) or pEGFP-N-1-mANO1 (0.8˜1.0 μg) and/or any one of the GPCR cDNAs (1.0 μg) obtained in Reference Example 2, using a FuGENE® HD transfection reagent (Roche Diagnostics, Penzberg, Germany). Transfected cells were maintained in DMEM supplemented with heat inactivated 10% fetal bovine serum (GIBCO BRL, Rockville, Md.) and penicillin-streptomycin at 37 in a 5% CO2 humidified atmosphere. One or two days after transfection, transfected cells were used for biochemical and electrophysiological experiments.\nas §1\nUnder physiological conditions CaCCs are known to be activated by GPCR stimulation. Endothelin-1 is a powerful vasoconstrictor that depolarizes vascular smooth muscle by activating CaCCs (Klockner, U. & Isenberg, G., Pflugers Arch. 418, 168-75 (1991); and Salter, K. J. & Kozlowski, R. Z., J Pharmacol Exp Ther. 279, 1053-62 (1996)). Thus, mANO1 and endothelin receptor subtype A (ETAR) were transfected into HEK 293T cells, along with GFP for visual identification of transfected cells, in accordance with the method of Reference Example 5. Whole cells were used to test the current response of mANO1 to ETAR stimulation. Pipette and bath solutions contained 140 mM N-methyl D-glucamine (NMDG)-Cl, which permitted Cl^− to be used as the main charge carrier. The pipette solution was Ca^2+ free and contained no EGTA. […] In contrast, endothelin-1 evoked currents were minimal in HEK cells transfected with ETAR or control (GFP-transfected only) cells. When mANO1 was transfected alone, 50 nM endothelin-1 evoked appreciable currents; presumably because of the presence of endogenous endothelin receptors in HEK cells."}, "hANO1": {"tested_on": "hANO1", "assay": "Current recording in hANO1/ETAR-HEK cells", "assay_type": "cell-based, human", "conditions": "50 nM endothelin-1", "from_the_text": "The hANO1 (human TMEM16A; NM_018043, GI: 40354209) was cloned from human trachea total RNAs (Clontech, Palo Alto, Calif.) by PCR method using following primers; forward primer 5′-CTCGAGGCCACCATGAGGGTCAACGAGAAGTACTC-3′ (SEQ ID NO: 8) and reverse primer 5′-GGTACCCTACAGGACGCCCCCGTGGTAG-3′ (SEQ ID NO: 9). The PCR product was cut with XhoI and KpnI, and then inserted into XhoI/KpnI site of pSDTF or pEGFP-N1.\nTo form gigaseals, individual cell surfaces were touched with a ˜3 Mohm Sylgard-coated glass pipette with gentle suction, and the junction potential was then adjusted to 0 mV. The membrane in contact with the pipette was then ruptured by suction to form a whole cell. The pipette solution contained 140 mM NMDG-Cl, 2 mM MgCl2, 10 mM HEPES, 2 mM ATP, and 0.3 mM GTP adjusted to pH 7.2, and the bath solution contained 140 mM NMDG-Cl, 2 mM MgCl2 and 10 mM HEPES (pH 7.2). For ion selectivity experiments, 140 mM NMDG-Cl was replaced with equimolar NaCl, NaL NaBr, NaNO3, NaF, or Na-gluconate in the bath solution. To determine current-voltage relationships, voltage ramps from −80 or −100 mV to +80 or +100 mV were delivered for 350 ms, or voltage-pulses from −100 mV to +100 mV were delivered for 400 ms to whole cells. When mANO1 was activated by 300 nM intracellular Ca^2+, voltage-pulses of 2500 ms were delivered. […]"}},
  "note": "Where two headings read alike, the source gives them in different places.",
  "data": [
    {"compound": "NCCOB(c1ccccc1)c1ccccc1", "note": "[2APB]", "values": [
      {"measurement": "block of ATP induced-membrane potential change", "setting": "mANO1 [1]; pretreatment of 2APB, ANO1-stably expressing HEK cells", "result": "blocked"}
    ]},
    {"compound": "[Ca+2]", "note": "[Ca^2+]", "values": [
      {"measurement": "Hill's coefficient of concentration-response curve", "setting": "mANO1 [2]; +60 mV", "result": 2.4},
      {"measurement": "EC50", "setting": "mANO1 [2]; depolarized membrane potential +60 mV, read-out: EC50 for ANO1 activation", "result": 400, "unit": "nM"},
      {"measurement": "EC50", "setting": "mANO1 [2]; holding potential −60 mV, read-out: half-maximal concentration (EC50) for ANO1 activation", "result": 2600, "unit": "nM"},
      {"measurement": "Hill's coefficient of concentration-response curve", "setting": "mANO1 [2]; −60 mV", "result": 2.0},
      {"measurement": "threshold concentration for ANO1 activation", "setting": "mANO1 [2]; −60 mV holding potential", "result": "about 0.3 μM"}
    ]},
    {"compound": "CNc1ccc2oc(C[C@H]3O[C@@]4(CC[C@H]3C)O[C@H]([C@H](C)C(=O)c3ccc[nH]3)[C@H](C)C[C@H]4C)nc2c1C(=O)O", "note": "[A23187]", "values": [
      {"measurement": "membrane potential change detected by fluorescent intensity", "setting": "mANO1 [1]", "result": "evoked membrane potential change"}
    ]},
    {"compound": "Nc1ncnc2c1ncn2[C@@H]1O[C@H](COP(=O)(O)OP(=O)(O)OP(=O)(O)O)[C@@H](O)[C@H]1O", "note": "[ATP]", "values": [
      {"measurement": "inward currents activated by ATP", "setting": "mANO1 [3]; ATP 100 μM, mANO1 co-transfected with P2Y2R in HEK 293T cells, Ehold −60 mV", "result": "Large inward currents"},
      {"measurement": "membrane potential change detected by fluorescent intensity", "setting": "mANO1 [1]", "result": "evoked robust change in membrane potentials"}
    ]},
    {"compound": "endothelin-1 (CSCSSLMDKECVYFCHLDIIW) [powerful vasoconstrictor; ligand of endothelin receptor subtype A (ETAR)]", "values": [
      {"measurement": "endothelin-1 evoked inward currents", "setting": "mANO1 [3]; 50 nM endothelin-1, mANO1-ETAR/HEK cells, whole cell, membrane potential −60 mV", "result": "evoked robust inward currents"},
      {"measurement": "second responses relative to first responses (tachyphylaxis)", "setting": "mANO1 [3]; 50 nM endothelin-1 applied twice with a 5 min interval, ANO1/ETAR-HEK cells, n=12, no blocker", "result": "87.1±11.4", "unit": "%"},
      {"measurement": "endothelin-1 evoked Cl− currents", "setting": "hANO1", "result": "evoked large Cl^− currents"}
    ]}
  ]
}
